Data: the NIST ThermoML archive (doi:10.1021/je900757k)

Assay: isobaric coefficient of expansion
Conditions: Liquid, DSC

ClC(Cl)(Cl)Cl [tetrachloromethane]
isobaric coefficient of expansion
Conditions	278.15 K	288.15 K	298.15 K	308.15 K	318.15 K	328.15 K	338.15 K	348.15 K
5000 kPa	0.00114 1/K	0.00116 1/K	0.00119 1/K	0.00121 1/K	0.00124 1/K	0.00126 1/K	0.0013 1/K	0.00132 1/K
10000 kPa	0.00112 1/K	0.00113 1/K	0.00116 1/K	0.00117 1/K	0.0012 1/K	0.00122 1/K	0.00125 1/K	0.00126 1/K
15000 kPa	0.00108 1/K	0.0011 1/K	0.00113 1/K	0.00114 1/K	0.00116 1/K	0.00118 1/K	0.00119 1/K	0.00121 1/K
20000 kPa	0.00106 1/K	0.00108 1/K	0.00109 1/K	0.00111 1/K	0.00113 1/K	0.00114 1/K	0.00115 1/K	0.00116 1/K
25000 kPa	0.00104 1/K	0.00105 1/K	0.00107 1/K	0.00108 1/K	0.00109 1/K	0.0011 1/K	0.00111 1/K	0.00112 1/K
30000 kPa	0.00102 1/K	0.00103 1/K	0.00104 1/K	0.00105 1/K	0.00106 1/K	0.00107 1/K	0.00108 1/K	0.00109 1/K
35000 kPa	0.001 1/K	0.00101 1/K	0.00102 1/K	0.00103 1/K	0.00104 1/K	0.00104 1/K	0.00105 1/K	0.00105 1/K
40000 kPa	0.000979 1/K	0.000985 1/K	0.000996 1/K	0.00101 1/K	0.00101 1/K	0.00101 1/K	0.00102 1/K	0.00102 1/K
45000 kPa	0.000959 1/K	0.000967 1/K	0.000978 1/K	0.000978 1/K	0.000986 1/K	0.000986 1/K	0.000988 1/K	0.000993 1/K
50000 kPa	0.000943 1/K	0.000949 1/K	0.000955 1/K	0.000959 1/K	0.00097 1/K	0.000965 1/K	0.000967 1/K	0.000969 1/K
55000 kPa	0.000936 1/K	0.00093 1/K	0.000935 1/K	0.00094 1/K	0.00095 1/K	0.000946 1/K	0.000945 1/K	0.000947 1/K

CCCCCCCCCCCCCC [tetradecane]
isobaric coefficient of expansion
Conditions	298.15 K	308.15 K	318.15 K	328.15 K	338.15 K	348.15 K
5000 kPa	0.000909 1/K	0.000913 1/K	0.000918 1/K	0.000922 1/K	0.000931 1/K	0.000941 1/K
10000 kPa	0.000881 1/K	0.000884 1/K	0.00089 1/K	0.00089 1/K	0.000897 1/K	0.0009 1/K
15000 kPa	0.00086 1/K	0.000861 1/K	0.000863 1/K	0.000859 1/K	0.000863 1/K	0.000867 1/K
20000 kPa	0.000837 1/K	0.000836 1/K	0.000837 1/K	0.000833 1/K	0.000835 1/K	0.000839 1/K
25000 kPa	0.000815 1/K	0.000814 1/K	0.000815 1/K	0.00081 1/K	0.00081 1/K	0.000812 1/K
30000 kPa	0.000798 1/K	0.000793 1/K	0.000791 1/K	0.000789 1/K	0.000789 1/K	0.000789 1/K
35000 kPa	0.00078 1/K	0.000777 1/K	0.000774 1/K	0.00077 1/K	0.000768 1/K	0.000768 1/K
40000 kPa	0.000764 1/K	0.000761 1/K	0.000756 1/K	0.000753 1/K	0.000749 1/K	0.000747 1/K
45000 kPa	0.00075 1/K	0.000742 1/K	0.000738 1/K	0.000735 1/K	0.000732 1/K	0.000726 1/K
50000 kPa	0.000737 1/K	0.00073 1/K	0.000722 1/K	0.00072 1/K	0.000718 1/K	0.000711 1/K
55000 kPa	0.000725 1/K	0.000719 1/K	0.000714 1/K	0.000709 1/K	0.000705 1/K	0.000699 1/K

CCCCCCCCCCCCC [tridecane]
isobaric coefficient of expansion
Conditions	288.15 K	298.15 K	308.15 K	318.15 K	328.15 K	338.15 K	348.15 K
5000 kPa	0.00088 1/K	0.000891 1/K	0.000905 1/K	0.000919 1/K	0.000936 1/K	0.000958 1/K	0.00098 1/K
10000 kPa	0.00086 1/K	0.000868 1/K	0.00088 1/K	0.000892 1/K	0.000903 1/K	0.000917 1/K	0.000935 1/K
15000 kPa	0.00084 1/K	0.00085 1/K	0.000858 1/K	0.000865 1/K	0.00087 1/K	0.000882 1/K	0.000896 1/K
20000 kPa	0.000827 1/K	0.000828 1/K	0.000835 1/K	0.000838 1/K	0.000844 1/K	0.000853 1/K	0.000863 1/K
25000 kPa	0.000811 1/K	0.000812 1/K	0.000814 1/K	0.000818 1/K	0.00082 1/K	0.000827 1/K	0.000833 1/K
30000 kPa	0.000796 1/K	0.000799 1/K	0.000796 1/K	0.000799 1/K	0.0008 1/K	0.000801 1/K	0.000807 1/K
35000 kPa	0.000777 1/K	0.000782 1/K	0.000781 1/K	0.000781 1/K	0.000782 1/K	0.000783 1/K	0.000784 1/K
40000 kPa	0.000772 1/K	0.000771 1/K	0.000765 1/K	0.000763 1/K	0.000761 1/K	0.000761 1/K	0.000756 1/K
45000 kPa	0.000754 1/K	0.000755 1/K	0.00075 1/K	0.000748 1/K	0.000745 1/K	0.000741 1/K	0.000741 1/K
50000 kPa	0.000744 1/K	0.000744 1/K	0.000735 1/K	0.000734 1/K	0.000728 1/K	0.000728 1/K	0.000723 1/K
55000 kPa	0.000722 1/K	0.000725 1/K	0.000718 1/K	0.000718 1/K	0.000714 1/K	0.000714 1/K	0.000709 1/K

CCCCCCCCCCC [undecane]
isobaric coefficient of expansion
Conditions	278.15 K	288.15 K	298.15 K	308.15 K	318.15 K	328.15 K	338.15 K	348.15 K
5000 kPa	0.000936 1/K	0.000948 1/K	0.000965 1/K	0.000979 1/K	0.000993 1/K	0.00101 1/K	0.00102 1/K	0.00103 1/K
10000 kPa	0.000913 1/K	0.000924 1/K	0.000937 1/K	0.00095 1/K	0.00096 1/K	0.000971 1/K	0.000983 1/K	0.000991 1/K
15000 kPa	0.000893 1/K	0.0009 1/K	0.000912 1/K	0.000921 1/K	0.000933 1/K	0.00094 1/K	0.000946 1/K	0.000948 1/K
20000 kPa	0.000873 1/K	0.000879 1/K	0.00089 1/K	0.000897 1/K	0.000901 1/K	0.000909 1/K	0.000915 1/K	0.000917 1/K
25000 kPa	0.000854 1/K	0.000856 1/K	0.000865 1/K	0.00087 1/K	0.000874 1/K	0.000884 1/K	0.000888 1/K	0.00089 1/K
30000 kPa	0.000836 1/K	0.000843 1/K	0.000845 1/K	0.000848 1/K	0.000851 1/K	0.000857 1/K	0.00086 1/K	0.000859 1/K
35000 kPa	0.000819 1/K	0.00082 1/K	0.000825 1/K	0.000828 1/K	0.000829 1/K	0.000833 1/K	0.000834 1/K	0.000833 1/K
40000 kPa	0.000797 1/K	0.000801 1/K	0.000805 1/K	0.000806 1/K	0.000808 1/K	0.000806 1/K	0.00081 1/K	0.00081 1/K
45000 kPa	0.000785 1/K	0.000787 1/K	0.00079 1/K	0.000789 1/K	0.000787 1/K	0.00079 1/K	0.000789 1/K	0.000787 1/K
50000 kPa	0.000773 1/K	0.000773 1/K	0.000773 1/K	0.000774 1/K	0.000775 1/K	0.000775 1/K	0.000771 1/K	0.000769 1/K
55000 kPa	0.000765 1/K	0.000756 1/K	0.000759 1/K	0.000759 1/K	0.000758 1/K	0.000759 1/K	0.000754 1/K	0.000752 1/K
